Assay results: patent US20260091141A1, “GENE EDITING METHODS, SYSTEMS, AND COMPOSITIONS FOR TREATING SPINAL MUSCULAR ATROPHY” (The Broad Institute, Inc., priority 2023, published 2026)

What was measured:
SMN protein [1] = details: patient tissues; cited from earlier work
SMN protein [2] = details: SMA patients; cited from earlier work
SMN protein [3] = experiment: Western blot of SMN protein in Δ7SMA mESCs; assay type: cell-based, mouse; details: normalized to histone H3
Procedure: Cells harvested for western blot were washed with ice-cold PBS and incubated at 4° C. for 30 min while rocking in RIPA lysis buffer (ThermoFisher) supplemented with 1 mM PMSF (ThermoFisher) and complete EDTA-free protease inhibitor cocktail (Roche). Lysates were clarified by centrifugation at 12,000 rpm at 4° C. for 20 min. Lysates were normalized using BCA (Pierce BCA Protein Assay Kit) and combined with 4× Laemelli buffer (BioRad) and DTT (ThermoFisher) at a final concentration of 1 mM. 10 μg of reduced protein were loaded per gel lane, and transfer was performed with an iBlot 2 dry blotting system (ThermoFisher) using the following program: 20V for 1 min, then 23 V for 4 min, then 25 V for 2 min, for a total transfer time of 7 minutes. Blocking was performed at room temperature for 60 minutes with block buffer: 1% BSA in TBST (150 mM NaCl, 0.5% Tween-20, 50 mM Tris-Cl, pH 7.5).
Membranes were then incubated in primary antibody diluted in block buffer for 2 hours at room temperature. After a washing, secondary antibodies diluted in TBST were added and incubated for 1 hour at room temperature. Membranes were washed again and imaged using a LI-COR Odyssey. Wash steps were 3×5-minute washes in TBST. […]

SMN2 mRNA = experiment: RT-qPCR of SMN2 mRNA abundance in Δ7SMA mESCs; assay type: cell-based, mouse
Procedure: To investigate how exon 8 SA disruption affects SMN2 transcripts, reverse transcription quantitative PCR (RT-qPCR) was performed to measure the abundance of SMN2 mRNA in treated and control Δ7SMA mESCs. The terminal sequence of SMN2, including intron 7 and the 3′ untranslated region (UTR) of exon 8, encode negative regulators of gene expression and mRNA transcript stability^21,71,72. Alternative splicing at the terminus of SMN2 therefore may result in increased SMN protein levels. […]
To investigate whether risdiplam and nusinersen treatment of Δ7SMA mESCs affect SMN2 transcript abundance, RT-qPCR was performed, and SMN2 mRNA levels were quantified in treated and genome edited cells (FIG. 7G). […] In contrast, a 1.8-fold reduction of SMN2 mRNA was detected 48 hours after nusinersen treatment relative to untreated Δ7SMA mESCs (Welch's two-tailed t-test p<0.005) that explains the relative reduction in SMN protein levels compared to the base editing approach (FIG. 2G).
(§1) mRNA was isolated from […] mESCs with the RNeasy mini kit (Qiagen), and reverse transcription was performed using SuperScript IV (ThermoFisher) according to the manufacturer's protocols. For targeted SMN2 qPCR and splice product quantitation by automated electrophoresis, reverse transcription was performed with random hexamers. […]

SMN2 exon 7 splicing = SMN2 exon 7 splicing by RT-PCR (exons 6 to 8) and automated electrophoresis in Δ7SMA mESCs; assay type: cell-based, mouse
Procedure: To assess whether nuclease-mediated editing of ISS-N1 improved exon 7 splicing, reverse-transcription PCR (RT-PCR) of SMN2 was performed from exons 6 to 8, and SMNΔ7 and full-length SMN products were quantified by automated electrophoresis (FIG. 1C).
For Δ7SMA mESCs nusinersen experiments, cells were transfected with 20 nM of fully 2′-O-methoxyethyl (MOE)-modified ASO (5′-[…]-3′) (SEQ ID NO: 469) on a phosphorothioate backbone (TriLink), using Lipofectamine 3000 (ThermoFisher Scientific). After 24 hours media was replaced every other day with fresh mESC+2i media. For splicing rescue by risdiplam, mESC media was supplemented with 0.1-1 μM of risdiplam (RG7916, Selleck Chemicals LLC) in DMSO, as indicated. Cells were harvested at the indicated timepoints.
as §1, with “hexamers. Splicing inclusion of SMN2 exon 7 was quantified by automated electrophoresis using Tape Station (Agilent). For unbiased SMN2 splice product analysis by high-throughput sequencing, reverse transcription was performed using a custom oligo-dT primer with a Read 2 Illumina sequencing stub.” for “hexamers.”

SMN protein [4] = experiment: SMN protein levels in Δ7SMA mESCs by Western blot, normalized to histone H3; assay type: cell-based, mouse
Source text: Precise deletions are defined as those that remove ≥4 nt of ISS-N1 including ≥4 nt of the 3′-hnRNP A1/A2 domain. […] Precise deletions are defined as those that enable the addition of five or more C-terminal amino acids to SMNΔ7 (SMNΔ7mod) to restore protein stability. […] The observed fraction of precise deletions, splice acceptor (SA) deletions, and other indels are shown. […] FIG. 1I provides stacked bar charts showing SMN2 splice variants following editing with C-nuc and C-CBE, as measured by high-throughput sequencing of mRNA transcripts amplified with exon 6 and polyA-primers. Splicing activity of exon 7 spliced and unspliced sub-fractions is shown. Asterisks indicate *≤0.05. **≤0.01, and ***≤0.005.
(§2) Risdiplam doses of 1.0, 0.5, 0.25, or 0.1 μM were used (shown from left to right in the graph). […] The asterisk indicates p<0.05 by Welch's two-tailed t-test. […] UG=unrelated guide; NT=no treatment.
(§3) UG-unrelated guide; NT=no treatment.

SMN2 transcript = experiment: SMN2 / exon 7 mRNA transcript levels in Δ7SMA mESCs; assay type: cell-based, mouse
Procedure: as §2, §3

Δ7SMA mice = experiment: Electrophysiological measurements (CMAP, MUNE) in Δ7SMA mice; assay type: in vivo, mouse; details: PND12, 2.5×10^13 vg/kg Zolgensma, 0.1 mg/kg risdiplam IP daily
Procedure: Compound muscle action potential (CMAP) amplitude and motor unit number estimation (MUNE) from the gastrocnemius muscle of treated animals was performed to assess loss of motor neuron functional integrity, a key feature of SMA and preclinical SMA models^131. […] MUNE were reduced by 50% in untreated Δ7SMA animals compared to heterozygous mice. […] In contrast, little or no improvement in MUNE was observed following Zolgensma or 0.1 mg/kg risdiplam administration (50% and 75% relative to heterozygotes respectively, Kruskal-Wallis test p>0.6). […] Thus, neonatal ICV injection of AAV9-ABE measurably rescues SMA pathophysiology of spinal motor neurons.
Compound muscle action potential (CMAP) and motor unit number estimate (MUNE) measurements were performed as previously described^178. Briefly, at PND12 the right sciatic nerve was stimulated with a pair of insulated 28-gauge monopolar needles (Teca, Oxford Instruments Medical, NY) placed in proximity to the sciatic nerve in the proximal hind limb.
Recording electrodes consisted of a pair of fine ring wire electrodes (Alpine Biomed, Skovlunde, Denmark). […]
For MUNE, an incremental stimulus technique similar to a previously described procedure was used^178. […] The peak-to-peak amplitude of each individual incremental response was calculated by subtracting the amplitude of the prior response. […]

DNA = details: SpCas9 mutation relative to SEQ ID NO: 209; UniProtKB Q99ZW2 entry; cited from earlier work

Row | Molecule | increase of SMN protein levels (SMN protein [1]) | increase of SMN protein levels in patient tissues (SMN protein [2]) | increase in SMN protein levels relative to untreated (SMN protein [3]) | increase in SMN2 transcripts relative to untreated cells (SMN2 mRNA) | exon 7 splicing (SMN2 exon 7 splicing) | SMN protein levels, increase compared to Δ7SMA mESCs (SMN protein [4]) | effect on SMN2 transcript levels (SMN2 transcript) | MUNE relative to heterozygotes (Δ7SMA mice) | Function/Characteristic (as reported) (DNA)
1 | Cc1cn2nc(-c3cc(=O)n4cc(N5CCNC6(CC6)C5)ccc4n3)cc(C)c2n1 [risdiplam] | ~2 fold | ~2 fold | 9.1 fold | 1.6 fold | 89±4.3% | 9.5 fold | interfered with the endogenous regulation of SMN transcript levels | 75% | –
2 | H840A: SpCas9 mutation relative to SEQ ID NO: 209 | – | – | – | – | – | – | – | – | Nickase mutant which cleaves the non-
